According to patent US8889659B2, “Pain relief compositions, manufacture and uses” (API Genesis, LLC, priority 2011, dated 2014):

Columns and labels:
pain threshold = details: in vivo; cited from earlier work
[1] = cited from earlier work
nasal airway resistance = details: intranasal use, cited from earlier work
[2] = Diclofenac sodium solubility studies in solvents; format: physicochemical; details: for DICLOFENAC SODIUM SOLUBILITY: 2 wt. % Diclofenac Sodium
Procedure: All solubility samples were prepared in 20 gram sample size. The ingredients of each test samples were weighed to the nearest 0.01 grams. The 20 gram samples were mixed in 50 cc Pyrex glass beakers.
All solubility studies were performed with “Diclofenac Sodium Salt” obtained from Sigma Aldrich, St. Louis, Mo. (CAS #15307-79-6; Sigma-Aldrich Catalog No. D6899; Lot # BCBB7312; M.P. 275-277° C.)
The ingredients were thoroughly mixed at ambient temperatures ranging from 75° F. to 80° F.

[3] = Miscibility of diclofenac sodium and capsaicin liquid solutions
Procedure: The table below includes the compositions of 7 completely miscible and transparent diclofenac sodium and capsaicin liquid solutions that were prepared.
It is evident that alcohols (ethyl alcohol and/or ethoxydiglycol) are required to effect the solubility of Diclofenac salts within the oil based ingredients of the capsaicin vehicles.

blood flow = details: […] gel, topical, cited from earlier work
[4] = Solubility of nonivamide / capsaicin in methyl salicylate

For `CC1CC[C@H](C(C)C)[C@@H](O)C1` (some centres unmarked) [(d)-menthol], the “analgesic effect (pain threshold)” value (pain threshold) is given as “completely devoid of any analgesic effect”.

In the case of `CC(C)[C@@H]1CC[C@@H](C)C[C@H]1O` [(l)-menthol], the “analgesic effect (pain threshold)” value (pain threshold) is given as “able to increase pain threshold”.

For `CCOC(=O)c1ccc(N)cc1` [Benzocaine], the “Aqueous Soluble.” value [1] is listed as “sparingly” and the “Oil Soluble” value [1] is listed as “Soluble”.

In the case of `CC12CCC(CC1=O)C2(C)C` (centres unmarked) [Camphor], the “Oil Soluble” value [1] is given as “soluble”.

In the case of `COc1cc(CNC(=O)CCCC/C=C/C(C)C)ccc1O` [Capsaicin, N-(4-hydroxy-3-methoxybenzyl)-8-methylnon-trans-6-enamide], the “reduction in nasal airway resistance” value (nasal airway resistance) is given as 60%, the “effectiveness continued for” value (nasal airway resistance; in most patients) is given as “more than 4 months” and the “Aqueous Soluble.” value [1] is given as “insoluble”. For the same compound, the “Oil Soluble” value [1] was “soluble”, the “solubility in alcohol, methyl salicylate, ether, benzene and chloroform” value [1] was “freely soluble” and the solubility in water [1] was “practically insoluble”.

For `O=C([O-])Cc1ccccc1Nc1c(Cl)cccc1Cl.[Na+]` [Diclofenac Sodium], the “DICLOFENAC SODIUM SOLUBILITY” value ([2]; Sample 1: 98 wt. % Methyl Salicylate, ambient 75-80° F.) was “Sparingly Soluble/Insoluble”, the “DICLOFENAC SODIUM SOLUBILITY” value ([2]; Sample 2: 50 wt. % Methyl Salicylate, 15 wt. % Menthol, 11 wt. % Camphor, 1.5 wt. % Phenol, 20.5 wt. % Macadamia Nut Oil) was “Sparingly Soluble/Insoluble” and the “DICLOFENAC SODIUM SOLUBILITY” value ([2]; Sample 3: 98 wt. % Ethyl Alcohol) was “^(10)Completely Soluble”. The “DICLOFENAC SODIUM SOLUBILITY” value ([2]; Sample 4: 98 wt. % Transcutol) was “^(10)Completely Soluble”, the “DICLOFENAC SODIUM SOLUBILITY” value ([2]; Sample 5: 88 wt. % Methyl Salicylate, 10 wt. % Ethyl Alcohol) was “^(10)Completely Soluble” and the “DICLOFENAC SODIUM SOLUBILITY” value ([2]; Sample 6: 50 wt. % Methyl Salicylate, 15 wt. % Menthol, 11 wt. % Camphor, 1.5 wt. % Phenol, 18.5 wt. % Macadamia Nut Oil) was “Sparingly Soluble/Insoluble”. For the same compound, the “DICLOFENAC SODIUM SOLUBILITY” value ([2]; Sample 7: 50 wt. % Methyl Salicylate, 15 wt. % Menthol, 11 wt. % Camphor, 1.5 wt. % Phenol, 18.5 wt. % Ethyl Alcohol, 2 wt. % Capsaicin) was “^(10)Completely Soluble”, the “DICLOFENAC SODIUM SOLUBILITY” value ([2]; Sample 8: 50 wt. % Methyl Salicylate, 15 wt. % Menthol, 11 wt. % Camphor, 1.5 wt. % Phenol, 10.5 wt. % Ethyl Alcohol, 2 wt. % Capsaicin) was “^(10)Completely Soluble” and the “effect of heating to ˜35° C. on solubility” value ([2]; mixtures where solubility was sparingly soluble to insoluble) was “did not have a significant impact”. For the same compound, the “concentration with complete solubility/miscibility in the ethyl alcohol capsaicin vehicle” value [3] was less than 2 wt. %.

For `CCO` [Ethyl Alcohol], the “Aqueous Soluble.” value [1] is given as “miscible” and the “Oil Soluble” value [1] is given as “soluble”.

For `CC1CCC(C(C)C)C(O)C1` (centres unmarked) [Menthol], the “blood flow remains reduced” value (blood flow; 10 minutes after application) is given as roughly 20%, the “reduction of blood flow” value (blood flow; within 60 seconds of application) is given as 35% and the “Oil Soluble” value [1] is given as “soluble”.

In the case of `COC(=O)c1ccccc1O` [Methyl Salicylate, Methyl salicylate], the “Aqueous Soluble.” value [1] is given as “sparingly”.

In the case of `CCCCCCCCC(=O)NCc1ccc(O)c(OC)c1` [Nonivamide, vanillylamide of n-nonanoic acid], the “solubility levels in methyl salicylate” value [4] is reported as “exceeded 25 wt. %”, the “precipitation from 30 wt. % solution in methyl salicylate” value ([4]; after 2 weeks of storage at 5° C.) is reported as “no evidence of any precipitation” and the “precipitation from 30 wt. % solution in methyl salicylate” value ([4]; powder added at ambient temperature, cooled to −10° C. for 10 hours) is reported as “did not result in the precipitation”.

In the case of `CCCNC(C)C(=O)Nc1ccccc1C` (centres unmarked) [Prilocaine], the “Aqueous Soluble.” value [1] is listed as “sparingly” and the “Oil Soluble” value [1] is listed as “soluble”.
